System: osteosarcoma (bone cancer) and chondrosarcoma (cartilage cancer)
Assay: Treatment of one dog (Maggie, 12 year old Border Collie) with bone and cartilage cancer after leg amputation
Type: in vivo
Text: The mammal involved is Maggie, a 12 year old, neutered female Border Collie. • 1) The IDO-producing diseases or conditions in this case are osteosarcoma (bone cancer) and chondrosarcoma (cartilage cancer). • 2) There are three parts to treatment in this model. There must be a choice or choices from Treatment Part A. There may be choice(s) from Treatment Part B and/or Part C. • A) The goal of Treatment Part A is to “turn off” IDO and/or its actions. The choice I used in this case was an antioxidant to compete with IDO for O2. • The antioxidant I used was ascorbic acid in the form of Ester-C, a licensed trademark of Zila Neutraceuticals, Inc. It is manufactured under U.S. Pat. Nos. 4,822,816 and 5,070,085. It was purchased at Sam's Club and the bottle contained 500 500 mg caplets with Rose Hips.
The doseage was bowel tolerance level which in this case was 3-4½ grams per day. • B) The goal of Treatment Part B is to build up the immune system. […] This is not, however, seen as a cure for either type of cancer she had. • Another choice was pain medication. • Yet another choice was antibiotics after the surgery to prevent infection while she healed. • My other treatment of choice was Vitamin D3. I purchased KAL brand D-400. (This stands for 400 IUs of Vitamin D3). I purchased them at several health food stores. There were 100 softgels per bottle and each softgel contained 400 IUs of D3 as well as 600 IUs of Vitamin A. They were manufactured by Nutraceutical Corp. for Makers of KAL, Inc. • Maggie's dosage most of the time was 6 softgels (2400 IUs) per day. For one week in November, she had no Vitamin D3, then after that, 10 (4000 IUs) per day for a short time, then 8 (3200 IUs) per day. • The total cost per month for Ester-C and D-400 was approximately $25.
Also, on July 12, she started taking Vitamin D3. (She started with 2 per day, and by July 14th, was taking 6 per day. She took 3 in the morning and 3 at night from then until October 30.) The hope was that the D3 could buy some time.
August 25, in addition to Vitamin D3, Maggie started taking Vitamin C (Ester-C caplets). That evening, she was given 3 caplets (one and one half grams).
The morning of August 26, she was given 4 caplets (2 grams). The goal was to find her bowel tolerance level.
Treatment resumed, this time with 9 softgels of Vitamin D3 per day and 9 caplets of Ester-C per day. That afternoon, […] developed a fever that lasted until afternoon of the next day.
A week later, she was taking 7 Ester-C and 10 D3 per day, but the D3 was dropped to 8 per day by November 21.

Row | SMILES | overall effect of the treatment on the cancer (autopsy findings) (Ester-C plus Vitamin D3 after amputation, only microscopic cells and clusters in liver, bone tumor area being replaced) | alkaline phosphatase level (blood test) (November 3, Ester-C at bowel tolerance since August 25 in addition to Vitamin D3 (D3 stopped October 30), before treatment 3175) | alkaline phosphatase level (blood test) (November 5, Vet Emergency Hospital (different lab), Ester-C plus Vitamin D3 treatment) | lung and lower abdominal x-rays, sign of cancer (November 5, Ester-C plus Vitamin D3 treatment) | autopsy, cancer in lungs (after death December 18, Ester-C plus Vitamin D3 treatment) | alertness, behaviour (evening of August 26, one day after start of Ester-C (3 then 4 caplets) in addition to Vitamin D3) | alkaline phosphatase level (blood test) (August 15, Vitamin D3 6 softgels (2400 IUs) per day since July 12 after amputation, level before treatment 3175, normal range 5-131) | lung X-rays (August 15, on Vitamin D3 after amputation) | signs of Vitamin D3 overdose (blood test) (November 3, after 6 softgels (2400 IUs) per day July 14 to October 30) | calcium deposits in organs on x-ray (a symptom of D3 overdose) (November 5)
1 | O=C1O[C@H]([C@@H](O)CO)C(O)=C1O [Vitamin C, ascorbic acid] | seemed to be working on the cancer | 2230 | 1669 | no sign of cancer | no cancer in her lungs | alert and awake |  |  |  | 
2 | C=C1CC[C@H](O)C/C1=C/C=C1\CCC[C@]2(C)[C@@H]([C@H](C)CCCC(C)C)CC[C@@H]12 [Vitamin D3] |  |  |  |  |  |  | 3113 | no lung cancer tumors | no signs of Vitamin D3 overdose | no calcium deposits in any organs
